Data as given in PubChem BioAssay AID256 (DTP/NCI, 2004).
Where “and” joins values, the source holds several entries; their conditions need not be identical. Equal entries are not always repeated. Inconclusive results and toxic doses are left out. The calls were made as follows: active = survival T/C of 150% or more; inactive = T/C below 125% in these data.

Tested on: CD2F1 mice, L1210 leukemia ip, survival T/C
Experiment: NCI In Vivo Anticancer Drug Screen. Data for tumor model L1210 Leukemia (intraperitoneal) in CD2F1 (CDF1) mice
Settings: endpoint: mean survival time, higher = longer survival
Outline: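 Implant tumor; dose compound or vehicle; measure endpoint in both groups; report treated divided by control.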

[1] = dose: 100.0 mg/kg/injection, schedule: Q04DX003 (ip), vehicle: saline with Tween-80
[2] = dose: 200.0 mg/kg/injection, schedule: Q04DX003 (ip), vehicle: saline with Tween-80
[3] = dose: 400.0 mg/kg/injection, schedule: Q04DX003 (ip), vehicle: saline with Tween-80
[4] = dose: 100.0 mg/kg/injection, schedule: Q01DX009 (ip), vehicle: Klucel (hydroxypropylcellulose) (HPC)
[5] = dose: 200.0 mg/kg/injection, schedule: Q01DX009 (ip), vehicle: Klucel (hydroxypropylcellulose) (HPC)
[6] = dose: 400.0 mg/kg/injection, schedule: Q01DX009 (ip), vehicle: Klucel (hydroxypropylcellulose) (HPC)

Measured: T/C

COC(=O)c1cc(C(=O)OC)c(C(=O)OC)cc1C(=O)OC
inactive: [1] 97 % of control | [2] 92 % of control | [3] 89 % of control

O=S(=O)(Cc1ccc(Cl)cc1Cl)Cc1ccc(Cl)cc1Cl
inactive: [4] 98 % of control | [5] 91 % of control | [6] 92 % of control

Cc1cccc(Cl)c1NC(=O)C(C)N1CCCC1 (stereo not drawn)
inactive: dose: 12.5 mg/kg/injection, schedule: Q04DX003 (ip), vehicle: saline 100 % of control | dose: 25.0 mg/kg/injection, schedule: Q04DX003 (ip), vehicle: saline 107 % of control | dose: 50.0 mg/kg/injection, schedule: Q04DX003 (ip), vehicle: saline 104 % of control

C[C@]12CCC(=O)C(O)=C1CC[C@@H]1[C@@H]2CC[C@]2(C)C(=O)CC[C@@H]12
inactive: dose: 12.5 mg/kg/injection, schedule: Q01DX009 (ip), vehicle: Klucel (hydroxypropylcellulose) (HPC) 103 % of control | dose: 25.0 mg/kg/injection, schedule: Q01DX009 (ip), vehicle: Klucel (hydroxypropylcellulose) (HPC) 97 % of control | dose: 50.0 mg/kg/injection, schedule: Q01DX009 (ip), vehicle: Klucel (hydroxypropylcellulose) (HPC) 104 % of control | [4] 98 % of control | [5] 91 % of control | [6] 97 % of control

CC1(C)N=C(N)N=C(N)N1c1cccc(OCCOc2cccc(N)c2)c1
inactive: dose: 25.0 mg/kg/injection, schedule: Q01DX001 (ip), vehicle: Klucel (hydroxypropylcellulose) (HPC) 97 % of control | dose: 50.0 mg/kg/injection, schedule: Q01DX001 (ip), vehicle: Klucel (hydroxypropylcellulose) (HPC) 97 % of control

Cc1ccc(C(O)c2c(C)cc(C)cc2C)c(C)c1 (stereo not drawn)
inactive: [1] 94 % of control | [2] 89 % of control | [3] 88 % of control

C=CCOc1c(C)cc(C(C)(C)c2cc(C)c(OCC=C)c(C)c2)cc1C
inactive: dose: 25.0 mg/kg/injection, schedule: Q01DX001 (ip), vehicle: other 104 % of control | dose: 50.0 mg/kg/injection, schedule: Q01DX001 (ip), vehicle: other 103 % of control | dose: 100.0 mg/kg/injection, schedule: Q01DX001 (ip), vehicle: other 94 % of control and 97 % of control | dose: 400.0 mg/kg/injection, schedule: Q01DX001 (ip), vehicle: other 96 % of control

O=c1cc2cccccc-2cc1O
inactive: dose: 5.0 mg/kg/injection, schedule: Q01DX001 (ip), vehicle: saline 103 % of control | dose: 10.0 mg/kg/injection, schedule: Q01DX001 (ip), vehicle: saline 97 % of control | dose: 20.0 mg/kg/injection, schedule: Q01DX001 (ip), vehicle: saline 101 % of control | dose: 20.0 mg/kg/injection, schedule: Q04DX003 (ip), vehicle: saline with Tween-80 97 % of control | dose: 40.0 mg/kg/injection, schedule: Q01DX001 (ip), vehicle: saline 103 % of control | dose: 40.0 mg/kg/injection, schedule: Q04DX003 (ip), vehicle: saline with Tween-80 97 % of control | dose: 80.0 mg/kg/injection, schedule: Q01DX001 (ip), vehicle: saline 97 % of control

COc1ccc(/C(C#N)=C2\OC(=O)c3ccccc32)cc1OC
inactive: dose: 50.0 mg/kg/injection, schedule: Q01DX009 (ip), vehicle: saline 93 % of control | dose: 100.0 mg/kg/injection, schedule: Q01DX009 (ip), vehicle: saline 94 % of control | dose: 200.0 mg/kg/injection, schedule: Q01DX009 (ip), vehicle: saline 94 % of control | dose: 400.0 mg/kg/injection, schedule: Q01DX009 (ip), vehicle: saline 94 % of control

C(=N/c1ccccn1)/c1ccc(/C=N\c2ccccn2)cc1
inactive: dose: 100.0 mg/kg/injection, schedule: Q04DX003 (ip), vehicle: Klucel (hydroxypropylcellulose) (HPC) 94 % of control | dose: 200.0 mg/kg/injection, schedule: Q04DX003 (ip), vehicle: Klucel (hydroxypropylcellulose) (HPC) 94 % of control | dose: 400.0 mg/kg/injection, schedule: Q04DX003 (ip), vehicle: Klucel (hydroxypropylcellulose) (HPC) 102 % of control

Cc1cccc[n+]1CC(=O)c1ccc(-c2ccc(C(=O)C[n+]3ccccc3C)cc2)cc1
inactive: dose: 0.15 mg/kg/injection, schedule: Q04DX003 (ip), vehicle: Klucel (hydroxypropylcellulose) (HPC) 94 % of control | dose: 0.3 mg/kg/injection, schedule: Q04DX003 (ip), vehicle: Klucel (hydroxypropylcellulose) (HPC) 95 % of control | dose: 0.6 mg/kg/injection, schedule: Q04DX003 (ip), vehicle: Klucel (hydroxypropylcellulose) (HPC) 97 % of control

COC(=O)c1ccc([N+](=O)[O-])cc1O
inactive: dose: 100.0 mg/kg/injection, schedule: Q01DX009 (ip), vehicle: saline with Tween-80 105 % of control | dose: 200.0 mg/kg/injection, schedule: Q01DX009 (ip), vehicle: saline with Tween-80 102 % of control | dose: 400.0 mg/kg/injection, schedule: Q01DX009 (ip), vehicle: saline with Tween-80 97 % of control

CC(=O)n1c(COS(C)(=O)=O)nc2ccccc21
inactive: dose: 25.0 mg/kg/injection, schedule: Q01DX001 (ip), vehicle: carboxymethylcellulose (CMC) 105 % of control | dose: 50.0 mg/kg/injection, schedule: Q01DX001 (ip), vehicle: carboxymethylcellulose (CMC) 103 % of control

CC1=CC(C)N(C(=O)c2ccc(Cl)cc2)CCN1C(=O)c1ccc(Cl)cc1 (stereo not drawn)
inactive: [1] 98 % of control | [2] 102 % of control | [3] 102 % of control

CC1(C)CC(=O)C2(CNC3=C(CCC(C)(C)C3)C2)C(=O)C1
inactive: dose: 50.0 mg/kg/injection, schedule: Q04DX002 (ip), vehicle: saline with Tween-80 91 % of control | dose: 100.0 mg/kg/injection, schedule: Q04DX002 (ip), vehicle: saline with Tween-80 91 % of control | dose: 200.0 mg/kg/injection, schedule: Q04DX002 (ip), vehicle: saline with Tween-80 100 % of control | dose: 400.0 mg/kg/injection, schedule: Q04DX002 (ip), vehicle: saline with Tween-80 91 % of control

O=C(O)c1cc2ccccc2oc1=O
inactive: dose: 2.5 mg/kg/injection, schedule: Q01DX009 (ip), vehicle: Klucel (hydroxypropylcellulose) (HPC) 103 % of control | dose: 5.0 mg/kg/injection, schedule: Q01DX009 (ip), vehicle: Klucel (hydroxypropylcellulose) (HPC) 108 % of control | dose: 10.0 mg/kg/injection, schedule: Q01DX009 (ip), vehicle: Klucel (hydroxypropylcellulose) (HPC) 108 % of control | dose: 25.0 mg/kg/injection, schedule: Q04DX003 (ip), vehicle: saline with Tween-80 104 % of control | dose: 50.0 mg/kg/injection, schedule: Q04DX003 (ip), vehicle: saline with Tween-80 112 % of control

NCCN.[Ni+2].[O-]c1ccccc1[O-].[O-]c1ccccc1[O-]
inactive: dose: 0.78 mg/kg/injection, schedule: Q01DX009 (ip), vehicle: other 96 % of control | dose: 1.56 mg/kg/injection, schedule: Q01DX009 (ip), vehicle: other 93 % of control | dose: 3.13 mg/kg/injection, schedule: Q01DX009 (ip), vehicle: other 108 % of control | dose: 6.25 mg/kg/injection, schedule: Q01DX009 (ip), vehicle: other 112 % of control | dose: 12.5 mg/kg/injection, schedule: Q01DX009 (ip), vehicle: other 98 % of control

CC(O)C(O)C(O)C(O)CO (stereo not drawn) (tested in a mixture with another compound)
inactive: dose: 75.0 mg/kg/injection, schedule: Q01DX001 (ip), vehicle: saline with Tween-80 87 % of control | dose: 150.0 mg/kg/injection, schedule: Q01DX001 (ip), vehicle: saline with Tween-80 93 % of control | dose: 300.0 mg/kg/injection, schedule: Q01DX001 (ip), vehicle: saline with Tween-80 86 % of control

O=C(O)C(=O)O.[NH-]C1CCCC1[NH-].[Pt+2] (stereo not drawn)
inactive: dose: 1.25 mg/kg/injection, schedule: Q04DX003 (ip), vehicle: other 104 % of control | dose: 2.5 mg/kg/injection, schedule: Q04DX003 (ip), vehicle: other 114 % of control | dose: 5.0 mg/kg/injection, schedule: Q04DX003 (ip), vehicle: other 115 % of control | dose: 10.0 mg/kg/injection, schedule: Q04DX003 (ip), vehicle: other 106 % of control

COc1cc(NC(C)=O)c2ncccc2c1Br
inactive: [1] 104 % of control | [2] 97 % of control | [3] 92 % of control

Cc1ccc(NC(=O)Nc2cccc(CNC(=O)COc3ccc(Cl)cc3C(=O)O)c2)cc1S(=O)(=O)F
inactive: dose: 25.0 mg/kg/injection, schedule: Q01DX001 (ip), vehicle: saline with Tween-80 102 % of control | dose: 50.0 mg/kg/injection, schedule: Q01DX001 (ip), vehicle: saline with Tween-80 96 % of control | dose: 100.0 mg/kg/injection, schedule: Q01DX001 (ip), vehicle: saline with Tween-80 93 % of control | dose: 200.0 mg/kg/injection, schedule: Q01DX001 (ip), vehicle: saline with Tween-80 86 % of control | dose: 400.0 mg/kg/injection, schedule: Q01DX001 (ip), vehicle: saline with Tween-80 88 % of control
